Values after ≈ are worked out from the molar mass of the structure shown. Read-outs that look alike come from different tables or passages of the source.

The subject of experiment [1] is Aspergillus carbonarius ATCC 8740. As to the kind of experiment: Aspergillus panel MIC. As to conditions: Table 8. The experiment is classed as cell-based. On the procedure: (§1) Starter cultures of fungal strains to be tested were grown in 3 mL of RPMI 2% glucose media incubated at 37° C. with shaking at 200 rpm overnight. The culture media used was 900 mL H2O; 10.4 g RPMI 1640 (with L-glutamine and a pH indicator but without bicarbonate); 34.5 g MOPS and 18 g glucose. The pH of the media was adjusted to 7.0 with 1 M sodium hydroxide.
(§2) Solutions of the compound to be tested were prepared by dissolving the compound in DMSO and subsequently into media to the desired concentrations. 200 μL of compound solution was then added to the wells of the 96-well plate using a serial dilution method row-by row of the plate to give a compound concentration gradient across the plate of from 128 μg/mL to 0.25 μg/mL. The last two rows of each plate were control rows containing the culture media alone and the media plus fungi.
(§3) The fungi starter cultures were diluted 1:10 in water in cuvettes. This was then further diluted to an optical density (OD600) of 0.01 in media. 100 μL of the fungi was added to each well giving a starting concentration of fungus of 0.5-5×10^5/mL. One species of fungus was used on each plate. The plates were then held at 37° C. for 24 hours.
(§4) A plate reader was used to measure growth in each well at OD530 nm and the MIC was determined for each test compound. The MIC is defined as the lowest concentration giving rise to inhibition of ≥50% of that of the drug-free control well containing the fungus and media.
(§5) The compound of Example 2 (which corresponds to compound number 2) was tested against a panel of Aspergillus strains using a method analogous to that described above for the Candida Panel.

Experiment [2] relates to Aspergillus fumigatus ATCC 10894. Kind of experiment: Aspergillus panel MIC. The format is cell-based. As to conditions: Table 8. Here is the method:
as §1, §2, §3, §4, §5

In experiment [3] the test system is Aspergillus fulavus ATCC 204304. Kind of experiment: Aspergillus panel MIC. The experiment is classed as cell-based. The conditions noted are these: Table 8. Here is the method: as §1, §2, §3, §4, §5
For experiment [4], the system named is Aspergillus fumigatus ATCC 13073. As to the kind of experiment: Aspergillus panel MIC. The conditions noted are these: Table 8. The experiment is classed as cell-based. Here is the method:
as §1, §2, §3, §4, §5

The test system of experiment [5] is Aspergillus fumigatus ATCC 1028. As to the kind of experiment: Aspergillus panel MIC. The experiment is classed as cell-based. As to conditions: Table 8. On the procedure:
as §1, §2, §3, §4, §5

The test system of experiment [6] is Aspergillus fumigatus ATCC 204305. As to the kind of experiment: Aspergillus panel MIC. The experiment is classed as cell-based. The conditions noted are these: Table 8. Here is the method: as §1, §2, §3, §4, §5
Experiment [7] concerns Aspergillus fumigatus ATCC 16424. Kind of experiment: Aspergillus panel MIC. The format is cell-based. As to conditions: Table 8. On the procedure:
as §1, §2, §3, §4, §5

The next experiment relates to Aspergillus strains. Kind of experiment: Aspergillus panel MIC, statement on the whole panel. The experiment is classed as cell-based. As to conditions: Table 8, in words. On the procedure:
as §5

The test system of the next experiment is C. krusei NCPF3876. As to the kind of experiment: microbe, parasite or virus in culture. The experiment is classed as cell-based, Candida krusei. The conditions noted are these: Pichia kudriavzevii, NCPF3876; Table 4, common panel; 24 hours, ≥50% inhibition; read-out: MIC C. krusei NCPF3876. Summed up:
(§6)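 MIC taken as lowest concentration inhibiting growth ≥50% relative to drug-free control, from OD530 after 24 hours at 37° C. Fungi at 0.5-5×10^5/mL were exposed to serially diluted compound in RPMI 1640/MOPS/2% glucose medium adjusted to pH 7.0.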

The next experiment deals with Candida auris TDG1102. As to the kind of experiment: Candida panel MIC, serial dilution in 96-well plates. The format is cell-based. As to conditions: Candidozyma auris, TDG1102, 24 h, read-out: MIC Candida auris TDG1102. The method in brief:
(§7)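 RPMI/MOPS/2% glucose pH 7.0; 2-fold series 128→0.25 μg/mL; inoculum 0.5-5×10^5/mL; 37 °C, 24 h; OD530 read; MIC at ≥50% growth inhibition vs drug-free control.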

The subject of another experiment is Candida auris TDG2512. Described as above. The format is cell-based. The conditions noted are these: Candidozyma auris, TDG2512; Table 4, extended panel; 24 hours, ≥50% inhibition; read-out: MIC Candida auris TDG2512. Summed up:
as §7

Another experiment has as its system C. auris TDG1912. Described as above. The experiment is classed as cell-based. The conditions noted are these: Candidozyma auris, TDG1912; Table 4; 24 hours, ≥50% inhibition; read-out: MIC C. auris TDG1912. Summed up: as §7
The test system of another experiment is C. tropicalis NCPF8760. The experiment is described as above. The format is cell-based. As to conditions: NCPF8760, Table 4, common panel, 24 hours, ≥50% inhibition, read-out: MIC C. tropicalis NCPF8760. Summed up:
as §7

Another experiment concerns panel of Candida species. As to the kind of experiment: Candida panel MIC, statements on the whole panel. The format is cell-based. As to conditions: in words. On the procedure:
(§8) The minimum inhibitory concentration of test compounds were determined in a panel of Candida species (see Table 4 below), using the a serial dilution method in 96-well plates using the following protocol.
as §1, §2, §3, §4

Another experiment relates to Candida auris TDG2211. Kind of experiment: microbe, parasite or virus in culture. The format is cell-based. The conditions noted are these: Candidozyma auris, TDG2211; Table 4, extended panel; 24 hours, ≥50% inhibition; read-out: MIC Candida auris TDG2211. Summed up:
(§9)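 Growth inhibition was scored by OD530 nm after a 24 h, 37° C incubation of C. auris (0.5-5×10^5/mL) with compound dilutions in buffered RPMI glucose medium.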

In the next experiment the test system is Candida auris TDG2506. As to the kind of experiment: microbe, parasite or virus in culture. The experiment is classed as cell-based. As to conditions: Candidozyma auris, TDG2506; Table 4, extended panel; 24 hours, ≥50% inhibition; read-out: MIC Candida auris TDG2506. The method in brief: as §9
The subject of another experiment is C. parapsilosis NCPF3209. As to the kind of experiment: microbe, parasite or virus in culture. The experiment is classed as cell-based, Candida parapsilosis. As to conditions: Lodderomyces parapsilosis, NCPF3209; Table 4, common panel; 24 hours, ≥50% inhibition; read-out: MIC C. parapsilosis NCPF3209. The method in brief:
as §6

The next experiment relates to C. albicans NCPF3281. Kind of experiment: Candida panel MIC, serial dilution in 96-well plates. The experiment is classed as cell-based, Candida albicans. The conditions noted are these: NCPF3281, read-out: MIC C. albicans NCPF3281. Summed up: as §7
Another experiment relates to C. albicans 3645. As to the kind of experiment: Candida albicans panel MIC. The format is cell-based. The conditions noted are these: Table 6, Candida albicans panel. On the procedure:
as §8, §1, §2, §3, §4
(§10) The compounds shown in Table 6 were tested against a further panel of Candida albicans.

The test system of the next experiment is C. albicans 3882. As to the kind of experiment: Candida albicans panel MIC. The experiment is classed as cell-based. The conditions noted are these: Table 6, Candida albicans panel. Here is the method:
as §8, §1, §2, §3, §4, §10

A further experiment has as its system C. albicans 8112. Kind of experiment: Candida albicans panel MIC. The experiment is classed as cell-based. The conditions noted are these: Table 6, Candida albicans panel. On the procedure: as §8, §1, §2, §3, §4, §10
A further experiment concerns C. albicans 3881. Kind of experiment: Candida albicans panel MIC. The experiment is classed as cell-based. The conditions noted are these: Table 6, Candida albicans panel. On the procedure: as §8, §1, §2, §3, §4, §10
For another experiment, the system named is C. albicans 3880. As to the kind of experiment: Candida albicans panel MIC. The experiment is classed as cell-based. The conditions noted are these: Table 6, Candida albicans panel. On the procedure: as §8, §1, §2, §3, §4, §10
In another experiment the test system is C. albicans 3990. As to the kind of experiment: Candida albicans panel MIC. The experiment is classed as cell-based. As to conditions: Table 6, Candida albicans panel. On the procedure: as §8, §1, §2, §3, §4, §10
Another experiment relates to C. albicans 3363. Kind of experiment: Candida albicans panel MIC. The experiment is classed as cell-based. As to conditions: Table 6, Candida albicans panel. Here is the method: as §8, §1, §2, §3, §4, §10
The next experiment deals with C. glabrata NCPF8018. Kind of experiment: Candida panel MIC, serial dilution in 96-well plates. The experiment is classed as cell-based, Candida glabrata. The conditions noted are these: Nakaseomyces glabratus, NCPF8018; Table 4, common panel; 24 hours, ≥50% inhibition; read-out: MIC C. glabrata NCPF8018. Summed up: as §6

Consider `N#Cc1ccc(-c2ccc(NC3CCN(CC(O)(Cn4cncn4)c4ccc(F)cc4F)CC3)cc2)cc1` (stereo not drawn) [Compound number 2, 4′-((1-(2-(2,4-difluorophenyl)-2-hydroxy-3-(1H-1,2,4-triazol-1-yl)propyl)piperidin-4-yl)amino)-[1,1′-biphenyl]-4-carbonitrile], for which the “Minimum inhibitory concentration Aspergillus carbonarius ATCC 8740” value in [1] is recorded as 0.25. Further, the “Minimum inhibitory concentration Aspergillus fumigatus ATCC 10894” value in [2] is 0.25. Also, the “Minimum inhibitory concentration Aspergillus fulavus ATCC 204304” value in experiment [3] was 0.5. Also, the “Minimum inhibitory concentration Aspergillus fumigatus ATCC 13073” value in experiment [4] is recorded as not above 0.125. Also, the “Minimum inhibitory concentration Aspergillus fumigatus ATCC 1028” value in [5] is given as 0.25. In addition, the “Minimum inhibitory concentration Aspergillus fumigatus ATCC 204305” value in experiment [6] is given as not above 0.125. In addition, in [7], the “Minimum inhibitory concentration Aspergillus fumigatus ATCC 16424” value is listed as not above 0.125.
`N#Cc1ccc(-c2ccc(NC3CCN(CC(O)(Cn4cncn4)c4ccc(F)cc4F)CC3)cc2)cc1` (stereo not drawn) [Example 2, 4′-((1-(2-(2,4-difluorophenyl)-2-hydroxy-3-(1H-1,2,4-triazol-1-yl)propyl)piperidin-4-yl)amino)-[1,1′-biphenyl]-4-carbonitrile]: the “Effectiveness against the Aspergillus strains tested compared to fluconazole” value with Aspergillus strains is given as “highly effective”. Also, the MIC in the experiment on C. krusei NCPF3876 was 0.003 to 0.125 mg/L (≈ 0.00583 to 0.243 µM); in the experiment on Candida auris TDG1102, 0.003 to 0.5 mg/L (≈ 0.00583 to 0.972 µM); with Candida auris TDG2512, not above 0.003 mg/L; in the experiment on C. auris TDG1912 it was 0.03 mg/L (≈ 0.0583 µM); in the experiment on C. tropicalis NCPF8760, 0.003 to 0.25 mg/L (≈ 0.00583 to 0.486 µM); in the experiment with Candida auris TDG2211 it was 0.25 mg/L (≈ 0.486 µM). Besides, the MIC with Candida auris TDG2506 was 0.003 to 0.15 mg/L (≈ 0.00583 to 0.291 µM); in the experiment on C. parapsilosis NCPF3209, not above 0.003 mg/L; with C. albicans NCPF3281 (Candida albicans, Table 4, common panel, 24 hours, ≥50% inhibition), not above 0.0039 mg/L; in the experiment on C. albicans NCPF3281 (Table 6, Candida albicans panel) it was not above 0.0039 mg/L; against C. albicans 3645, 0.00391 mg/L (≈ 0.0076 µM); in the experiment with C. albicans 3882, 0.0313 mg/L (≈ 0.0608 µM). For the same molecule, the MIC was 0.00195 to 0.00781 mg/L (≈ 0.00379 to 0.0152 µM) against C. albicans 8112; 0.0156 mg/L (≈ 0.0303 µM) against C. albicans 3881; 0.00781 mg/L (≈ 0.0152 µM) with C. albicans 3880; 0.0156 mg/L (≈ 0.0303 µM) in the experiment on C. albicans 3990; 0.00781 to 0.125 mg/L (≈ 0.0152 to 0.243 µM) against C. albicans 3363; 0.125 mg/L (≈ 0.243 µM) in the experiment with C. glabrata NCPF8018. Also, the “Activity against Candida auris including resistant strains” value in the experiment with panel of Candida species was “highly active”.

Values taken from patent US20240246920A1, “TRIAZOLE DERIVATIVES WITH ANTIFUNGAL ACTIVITY” (King's College London, priority 2020, published 2024).
